Measured values from PubChem BioAssay (NCI).
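Five compound concentrations were applied to cells in 96-well plates for 48 hours; endpoints were derived by simple linear interpolation of the resulting dose-response curve. Here, GI50 denotes the concentration required for 50% inhibition of growth. TGI: concentration producing complete growth inhibition.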

How the values were obtained:
Assay in all cases: NCI-60 cell line screen, 48 h
[1] = test system: CCRF-CEM leukemia
[2] = test system: UACC-257 melanoma
[3] = test system: LOX IMVI melanoma
[4] = test system: SNB-19 CNS
[5] = test system: COLO 205 colon
[6] = test system: RXF 393 renal
[7] = test system: NCI-H226 lung
[8] = test system: K-562 leukemia
[9] = test system: SNB-75 CNS
[10] = test system: UACC-62 melanoma

SMILES	GI50 [1]	TGI [1]	GI50 [2]	TGI [2]	GI50 [3]	TGI [3]	GI50 [4]	TGI [4]	GI50 [5]	TGI [5]	GI50 [6]	TGI [6]	GI50 [7]	TGI [7]	GI50 [8]	TGI [8]	GI50 [9]	TGI [9]	GI50 [10]	TGI [10]
COc1ccc2c(c1)C(C)Cc1c(ncnc1-n1c(C)nc3ccccc31)N2C (stereo unspecified)	2.85 µM	16.4 µM	14.8 µM	33.5 µM	4.42 µM	23.9 µM	4.45 µM	23.1 µM	2.76 µM	11.1 µM	2.83 µM	9.21 µM	11.5 µM	36.1 µM	0.452 µM	13.3 µM	2.41 µM	11.1 µM	4.83 µM	22.3 µM
C[C@]12CC[C@H](O)C[C@H]1CC[C@@H]1[C@@H]2CC[C@]2(C)[C@@H](C3=CC(=O)OC3)CC[C@]12O		44.4 µM		2.63 µM		0.533 µM		2.2 µM		2.32 µM		0.0681 µM		2.83 µM		1.42 µM		2.12 µM	0.32 µM	1.09 µM
COC(=O)/C(C=O)=C/Sc1ccccc1		> 100 µM		> 100 µM		23 µM		> 100 µM		42.9 µM		51.7 µM		44.6 µM		> 100 µM		50.9 µM		77.8 µM
COc1cccc(/C(COc2ccc3c(c2)oc(=O)c2cc(OC)ccc23)=N/O)c1	11.4 µM	> 100 µM	34.8 µM	> 100 µM	7.14 µM	> 100 µM	3.66 µM	> 100 µM	4.25 µM	> 100 µM	> 100 µM	> 100 µM	51.9 µM	> 100 µM	4.43 µM	> 100 µM	2.36 µM	9.61 µM	4.25 µM	> 100 µM
COc1cc2ccc3c4cc(OC)c(OC(C)C)cc4cnc3c2cc1OC		> 100 µM		> 100 µM		> 100 µM		> 100 µM		> 100 µM		> 100 µM		> 100 µM		> 100 µM		> 100 µM		> 100 µM
O=[N+]([O-])c1ccc2c(c1)C(c1ccccc1Cl)=Nc1cn[nH]c1N2	8 µM	> 25 µM	> 25 µM	> 25 µM	18.1 µM	> 25 µM	> 25 µM	> 25 µM	9.43 µM	> 25 µM	4.57 µM	> 25 µM	11.8 µM	> 25 µM	19 µM	> 25 µM	0.618 µM	> 21.2 µM	16 µM	> 25 µM
CN[C@@H](C)[C@H](NC)c1ccccc1		> 100 µM		> 100 µM		> 100 µM		> 100 µM		> 100 µM		> 100 µM		> 100 µM		> 100 µM		> 100 µM		> 100 µM
COc1ccc(C(=O)COc2cccc(/C=C3\Oc4ccc5ccccc5c4C3=O)c2)cc1	0.327 µM	1.44 µM	14.5 µM	32.4 µM	1.56 µM	3.08 µM	15.5 µM	29.4 µM	2.45 µM	6.94 µM	0.545 µM	1.77 µM	6.58 µM	22.4 µM	1.53 µM	3.73 µM	12.3 µM	29 µM	10.7 µM	22.5 µM
